The target in one test is Aurora kinase B (Homo sapiens, UniProt Q96GD4). Nature of the test: Aurora Kinase Assay. The protocol:
(§1) The kinase assay of Aurora A and B was measured using HTRF-kinEASE-STK discovery kit purchased from Cisbio.

The next test has as its target T1, Aurora kinase A (Homo sapiens, UniProt O14965).
T1 sequence (O14965 whole entry): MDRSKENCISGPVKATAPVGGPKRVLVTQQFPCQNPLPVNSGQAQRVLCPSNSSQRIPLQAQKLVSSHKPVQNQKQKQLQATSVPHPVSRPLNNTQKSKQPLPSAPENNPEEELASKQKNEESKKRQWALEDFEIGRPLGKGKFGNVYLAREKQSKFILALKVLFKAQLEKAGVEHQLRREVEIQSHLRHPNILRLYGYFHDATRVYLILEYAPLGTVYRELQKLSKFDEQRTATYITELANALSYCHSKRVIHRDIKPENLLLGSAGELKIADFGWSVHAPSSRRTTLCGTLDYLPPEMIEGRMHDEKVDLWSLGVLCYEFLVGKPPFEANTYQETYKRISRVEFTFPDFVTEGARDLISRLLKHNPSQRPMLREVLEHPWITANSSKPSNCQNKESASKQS
Put plainly: Aurora Kinase Assay. The method, then:
as §1

pIC50: −log10 of the molar value.

Chain of Aurora kinase B (Q96GD4 whole entry): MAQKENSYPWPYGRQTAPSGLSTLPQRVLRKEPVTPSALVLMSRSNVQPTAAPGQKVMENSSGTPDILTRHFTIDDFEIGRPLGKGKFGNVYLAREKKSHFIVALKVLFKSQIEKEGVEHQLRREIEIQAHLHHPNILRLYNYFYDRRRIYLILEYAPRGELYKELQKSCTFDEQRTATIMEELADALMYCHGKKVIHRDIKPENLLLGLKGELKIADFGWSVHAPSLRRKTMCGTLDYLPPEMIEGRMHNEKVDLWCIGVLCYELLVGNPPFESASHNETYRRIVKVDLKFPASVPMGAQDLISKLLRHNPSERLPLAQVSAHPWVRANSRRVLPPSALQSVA

As to `Cc1ccc(Nc2ncnc3cc(OCCCN4CCOCC4)ccc23)cc1Nc1ncc(-c2cccnc2)cn1` [4-Aminoquinazoline derivative, 6a], the pIC50 is 6.72 against Aurora kinase B and 6.75 against Aurora kinase A.

With `Cc1ccc(Nc2ncnc3cc(OCCCN4CCCCC4)ccc23)cc1Nc1ncc(-c2cccnc2)cn1` [4-Aminoquinazoline derivative, 6b], the values for the pIC50 on Aurora kinase B and on Aurora kinase A were 6.31 and 6.49, respectively.

Turning to `CCN(CC)CCCOc1ccc2c(Nc3ccc(C)c(Nc4ncc(-c5cccnc5)cn4)c3)ncnc2c1` [4-Aminoquinazoline derivative, 6c], the pIC50 against Aurora kinase B is 6.69; against Aurora kinase A, 7.01.

As for `Cc1ccc(Nc2ncnc3cc(OCCCN4CCCC4)ccc23)cc1Nc1ncc(-c2cccnc2)cn1` [4-Aminoquinazoline derivative, 6d], the pIC50 was 6.84 against Aurora kinase B and 7.11 at Aurora kinase A.

As to `CCOC(=O)c1csc2cc(Nc3ncnc4cc(OCCCN5CCN(C)CC5)ccc34)ccc12` [4-Aminoquinazoline derivative, 6f], the figures for the pIC50 on Aurora kinase B and on Aurora kinase A were 6.87 and 6.95, respectively.

In turn, `CCOC(=O)c1csc2cc(Nc3ncnc4cc(OCCCN5CCCCC5)ccc34)ccc12` [4-Aminoquinazoline derivative, 6g] showed a pIC50 against Aurora kinase A of 6.09.

As for `CCOC(=O)c1csc2cc(Nc3ncnc4cc(OCCCN5CCCC5)ccc34)ccc12` [4-Aminoquinazoline derivative, 6h], the pIC50 against Aurora kinase B was 6.84; on Aurora kinase A, 7.21.

With `CCOC(=O)c1csc2cc(Nc3ncnc4cc(OCCCN(CC)CC)ccc34)ccc12` [4-Aminoquinazoline derivative, 6i], the results for the pIC50 against Aurora kinase B and at Aurora kinase A were 6.05 and 6.10, respectively.

The values above are taken from BindingDB's records for doi:10.1111/cbdd.12089 (Southeast University, 2013).
